In brackets after ≈: the same amount, converted by molar mass. Where two headings read alike, the source gives them in different places.
Experiments:
[1] = Solubility test in water, methanol and isopropanol; format: physicochemical
Method: The solubility in water, methanol, and isopropanol of the compounds of the present disclosure and the comparative compounds were measured separately.

[2] = Accelerated stability test; format: physicochemical; conditions: 40° C.±2° C., relative humidity 75%+5%
Method: The compound of the present disclosure was placed at a temperature of 40° C.±2° C. and a relative humidity of 75%+5% for 6 months, and samples were taken to determine for the descriptions, related substances, and contents.

[3] = tested on: isolated ileal smooth muscle of guinea pigs; assay: Effect on muscle tone of isolated ileal smooth muscle of guinea pigs (no histamine added); parameters: species or system guinea pig; conditions: 5 minutes after adding the drug, X ± s, n = 8
Method: The guinea pig was knocked unconscious with a wooden stick, and the abdomen was immediately dissected to separate the ileum about 15 cm in length. The contents of the intestinal segment were flushed with Tyrode's solution and placed in Tyrode's solution at a constant temperature of 37° C. for later use, and oxygen was supplied simultaneously. The experimental intestinal tract (1 cm in length) was cut and placed into 20 ml of Tyrode's solution at a constant temperature of 37° C. with a continuous oxygen supply. One end of the intestine was fixed on the ventilation hook and the other end was connected to the muscle tone transducer and led to the computer interface. The muscle tone value of the ileal smooth muscle was recorded with a BL system. The experiment was carried out after the intestinal segment contraction became stable. […] The operation was repeated 8 times. The antispasmodic percentage was calculated according to the following formula. [formula]

[4] = tested on: histamine-induced asthma in guinea pigs; assay: Antiasthmatic effect on histamine-induced asthma in guinea pigs (latency period); format: in vivo, guinea pig; conditions: 1 mg/kg oral gavage, sixty minutes after administration; no asthma within 8 minutes counted as 8 minutes; X ± s, n = 5
Method: The guinea pigs were placed in a polymethyl methacrylate bell jar and a histamine hydrochloride solution was sprayed ultrasonically (0.8 mg/mL) for 40 seconds. The time point at which the guinea pigs developed asthma was recorded. The time of convulsion and fall was taken as the latency period. Guinea pigs with a latency period exceeding 180 seconds were not selected. […] The guinea pigs were administered by oral gavage at a dose of 2 mL/kg·bw. Sixty minutes after the administration, the guinea pigs were placed in bell jars, and histamine hydrochloride solution was sprayed under the same conditions as in the previous selection. The latency period for the onset of asthma was recorded. […] The results were processed statistically.

[5] = isopropanol, organic solvent or mixture, isopropanol, read-out: Solubility, Isopropanol
[6] = methanol, organic solvent or mixture, methanol, read-out: Solubility, Methanol
[7] = water, read-out: Solubility, Water

| SMILES | solubility [1, 5] | solubility [1, 6] | other results |
| --- | --- | --- | --- |
| O=C1Cc2ccccc2C(=C2CCN(CCOP(=O)(O)O)CC2)c2ccsc21 [Compound III-2] | – | – | solubility ([1]; isopropanol, organic solvent or mixture, read-out: Solubility, Isopropanol): 24 mg/mL (≈ 57.2 mM) |
| O=C1Cc2ccccc2C(=C2CCN(CCOP(=O)([O-])[O-])CC2)c2ccsc21.[K+].[K+] [Compound IV-2] | – | – | Content ([2]; Month 1): 99.7%; Content ([2]; Month 2): 99.7%; Content ([2]; Month 6): 99.6% |
| O=C1Cc2ccccc2C(=C2CCN(CCOCOP(=O)(O)O)CC2)c2ccsc21 [Compound IV-6] | – | – | Content ([2]; Month 3): 99.6% |
| O=C1Cc2ccccc2C(=C2CCN(CCCCOCOP(=O)([O-])[O-])CC2)c2ccsc21.[Na+].[Na+] [Compound IV-8] | – | – | Content ([2]; Month 1): 99.7%; Content ([2]; Month 2): 99.7%; Content ([2]; Month 6): 99.6% |
| OCCCCN1CCC(=C2c3ccc(Cl)cc3CCc3cccnc32)CC1 [Hydroxybutyl desloratadine, hydroxybutyl desloratadine, reference compound] | 28 mg/mL (≈ 73.1 mM) | 22 mg/mL (≈ 57.5 mM) | – |
| OCCN1CCC(=C2c3ccc(Cl)cc3CCc3cccnc32)CC1 [Hydroxyethyl desloratadine, hydroxyethyl desloratadine, reference compound] | 21 mg/mL (≈ 59.2 mM) | 27 mg/mL (≈ 76.1 mM) | – |
| OCCCCCCN1CCC(=C2c3ccc(Cl)cc3CCc3cccnc32)CC1 [Hydroxyhexyl desloratadine, hydroxyhexyl desloratadine, reference compound] | 32 mg/mL (≈ 77.9 mM) | 15 mg/mL (≈ 36.5 mM) | – |
| OCCCCCN1CCC(=C2c3ccc(Cl)cc3CCc3cccnc32)CC1 [Hydroxypentyl desloratadine, hydroxypentyl desloratadine, reference compound] | 29 mg/mL (≈ 73.1 mM) | 19 mg/mL (≈ 47.9 mM) | – |
| OCCCN1CCC(=C2c3ccc(Cl)cc3CCc3cccnc32)CC1 [Hydroxypropyl desloratadine, hydroxypropyl desloratadine, reference compound] | 26 mg/mL (≈ 70.5 mM) | 24 mg/mL (≈ 65.1 mM) | – |
| CN1CCC(=C2c3ccccc3CC(=O)c3sccc32)CC1 [Ketotifen, ketotifen] | 20 mg/mL (≈ 64.6 mM) | 30 mg/mL (≈ 97 mM) | Smooth muscle tone (g) After administration [3]: 1.30 ± 0.30 g; Antispasmodic percentage (%) ([3]; no histamine): 23.53 ± 10.10%; Post-administration latency period [4]: 263.11 ± 54.90 s |
| Cc1cncc(CN2CCC(=C3c4ccccc4CC(=O)c4sccc43)CC2)c1 [Rupatifen, rupatifen, reference compound] | 20 mg/mL (≈ 49.9 mM) | 30 mg/mL (≈ 74.9 mM) | – |

Continued, in another order:

| solubility [1, 5] | solubility [1, 6] | SMILES | other results |
| --- | --- | --- | --- |
| 24 mg/mL (≈ 59.2 mM) | 35 mg/mL (≈ 86.3 mM) | O=C1Cc2ccccc2C(=C2CCN(COP(=O)(O)O)CC2)c2ccsc21 [Compound III-1] | – |
| – | 35 mg/mL (≈ 80.7 mM) | O=C1Cc2ccccc2C(=C2CCN(CCCOP(=O)(O)O)CC2)c2ccsc21 [Compound III-3] | – |
| 24 mg/mL (≈ 53.6 mM) | 35 mg/mL (≈ 78.2 mM) | O=C1Cc2ccccc2C(=C2CCN(CCCCOP(=O)(O)O)CC2)c2ccsc21 [Compound III-4] | – |
| 24 mg/mL (≈ 51.8 mM) | 38 mg/mL (≈ 82 mM) | O=C1Cc2ccccc2C(=C2CCN(CCCOCOP(=O)(O)O)CC2)c2ccsc21 [Compound III-7] | – |
| 24 mg/mL (≈ 48.8 mM) | 38 mg/mL (≈ 77.3 mM) | O=C1Cc2ccccc2C(=C2CCN(CCCCCOCOP(=O)(O)O)CC2)c2ccsc21 [Compound III-9] | – |
| 1 mg/mL | 35 mg/mL | O=C1Cc2ccccc2C(=C2CCN(COP(=O)([O-])[O-])CC2)c2ccsc21.[Na+].[Na+] [Compound IV-1] | solubility [1, 7]: 488 mg/mL; Content ([2]; Month 1): 99.7%; Content ([2]; Month 3): 99.6% |
| – | 38 mg/mL (≈ 87.7 mM) | O=C1Cc2ccccc2C(=C2CCN(CCCOP(=O)(O)O)CC2)c2ccsc21 [Compound IV-3] | solubility [1, 7]: 404 mg/mL (≈ 932 mM) |
| 1 mg/mL | 35 mg/mL | O=C1Cc2ccccc2C(=C2CCN(CCCCOP(=O)([O-])[O-])CC2)c2ccsc21.[Na+].[Na+] [Compound IV-4] | solubility [1, 7]: 476 mg/mL; Content ([2]; Month 1): 99.7%; Content ([2]; Month 3): 99.6% |
| 1 mg/mL | – | O=C1Cc2ccccc2C(=C2CCN(CCCCCOP(=O)([O-])[O-])CC2)c2ccsc21.[Na+].[Na+] [Compound IV-5] | solubility [1, 7]: 478 mg/mL |
| 2 mg/mL | 35 mg/mL | O=C1Cc2ccccc2C(=C2CCN(CCCCCOCOP(=O)([O-])[O-])CC2)c2ccsc21.[Na+].[Na+] [Compound IV-9] | solubility [1, 7]: 473 mg/mL |

From patent US20260272960A1, “[…] COMPOUNDS, PREPARATION METHOD AND USE THEREOF” (HC SYNTHETIC PHARMACEUTICAL CO., LTD., priority 2022, published 2026)
